Experimental data from patent publication US6921531B2, “Administering bifunctional molecules containing a drug moiety and presenter protein ligand for therapy” (The Board of Trustees of the Leland Stanford Junior …, priority 1998, dated 2005).

What was measured:
FKBP52 = biological target: T1, FKBP52 (Homo sapiens, UniProt Q02790); experiment: Binding constants (Kd) for FKBP52, isothermal titration calorimetry
T1 construct: His6 (N); made in house
T1 sequence (Q02790 1-459): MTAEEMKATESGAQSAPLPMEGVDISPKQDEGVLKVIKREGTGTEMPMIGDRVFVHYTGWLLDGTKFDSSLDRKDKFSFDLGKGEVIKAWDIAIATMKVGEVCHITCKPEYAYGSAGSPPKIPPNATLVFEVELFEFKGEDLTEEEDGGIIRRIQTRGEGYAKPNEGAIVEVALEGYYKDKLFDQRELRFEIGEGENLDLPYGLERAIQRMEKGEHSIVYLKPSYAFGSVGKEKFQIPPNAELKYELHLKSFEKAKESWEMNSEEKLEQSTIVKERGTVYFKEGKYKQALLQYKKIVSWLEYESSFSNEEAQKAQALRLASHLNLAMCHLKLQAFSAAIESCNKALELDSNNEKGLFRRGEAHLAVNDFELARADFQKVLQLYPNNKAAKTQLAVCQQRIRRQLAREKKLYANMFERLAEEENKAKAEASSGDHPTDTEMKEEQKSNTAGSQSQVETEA
Excerpt: SLF was synthesized according to the procedures of Holt et al. [J. Am. Chem. Soc. 1993, 115, 9925]. SLF was coupled to the N-terminus of the resin-bound protected pYEEI peptide using PyBOP. The heterodimeric SLFpYEEI was deprotected and cleaved from the Novasyn TGT resin (Calbiochem-Novabiochem, San Diego, Ca.) using 25% trifluoroacetic acid and 2.5% triisopropyl silane in methylene chloride and the desired product was isolated using reverse phase HPLC. C. […] Recombinant FKBP12 was expressed as a GST fusion protein and bound to glutathione beads (Pharmacia). Using thrombin (Sigma) to cleave the GST-FKBP12 fusion protein at a thrombin cleavage site in the linker between GST and FKBP12, recombinant FKBP12 could be released from the glutathione beads where GST remained bound. FKBP52 was expressed with a tag of six histidine residues at its N-terminus (pET28c expression vector, Novagen). The recombinant protein was bound via the histidine tag to Ni^2+ NTA agarose beads (Qiagen), washed extensively and eluted with imidazole. […]
SLFpYEEI and FKpYEEI are bifunctional molecules that can bind FKBP12 and FKBP52 as well as the Fyn SH2 domain (FIG. 2). The binding constants (Kd values) of the bifunctional molecules for the three proteins were measured using isothermal titration calorimetry (ITC) (Table 1).

Lck SH2 domain = biological target: T2, Lck SH2 domain (Homo sapiens, UniProt P06239); experiment: Competition binding assay of radioactive Lck SH2 domain to pYEEI beads; settings: 1.0 μM ligand plus FKBP12 2.0 μM
T2 construct: The Fyn, Lck and PLC SH2 domains were expressed in bacteria as GST fusion proteins; GST (cleaved yes); made in house; host or cells: bacteria
T2 sequence (P06239 127-224 limits assumed): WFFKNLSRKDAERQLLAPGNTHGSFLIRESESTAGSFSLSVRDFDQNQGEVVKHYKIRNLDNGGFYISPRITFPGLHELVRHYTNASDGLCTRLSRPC
Excerpt: The pYEEI peptide was coupled to Affi-Gel 10 beads (Biorad) via its amino-group. The Fyn, Lck and PLC SH2 domains were expressed in bacteria as GST fusion proteins. The linker between the GST protein and the SH2 domain contained a thrombin cleavage site and a protein kinase A (PKA) phosphorylation site. The fusion protein on glutathione beads was radioactively labeled at the PKA phosphorylation site using PKA (Sigma). After extensive washing of the beads, the radioactive SH2 domain was released by cleavage with thrombin (Sigma). […] The beads were resuspended in […] PBS and the radioactivity was counted in a liquid scintillation counter after addition of 3 ml scintillation fluid. The radioactivity remaining in the 100 L supernatant was counted in the same way. It was determined that under the conditions described 65% Fyn, 25% PLC and 15%Lck SH2 domain were bound to the beads. […]
To test if the presence of FKBP12 affects the affinity of FKpYEEI for other SH2 domains aside from the PLC SH2 domain, FKpYEEI and FKBP12 were added to binding reactions containing the Fyn, Lck or PLC SH2 domains (FIG. 10). […] The binding reactions were rotated at room temperature for 2 hours, centrifuged and analysed as described above. […]

SMILES	Kd (FKBP52)	Effect of FKBP12 on affinity for the Lck SH2 domain (Lck SH2 domain)
CC[C@H](C)[C@H](NC(=O)[C@H](CCC(=O)O)NC(=O)[C@H](CCC(=O)O)NC(=O)[C@H](Cc1ccc(OP(=O)(O)O)cc1)NC(=O)OCC[C@@H]1/C=C(\C)C[C@H](C)C[C@H](OC)[C@H]2O[C@@](O)(C(=O)C(=O)N3CCCC[C@H]3C(=O)O[C@H](/C(C)=C/[C@@H]3CC[C@@H](O)[C@H](OC)C3)[C@H](C)[C@@H](O)CC1=O)[C@H](C)C[C@@H]2OC)C(=O)O [FKpYEEI]	150 nM	does not affect the affinity
CC[C@H](C)[C@H](NC(=O)[C@H](CCC(=O)O)NC(=O)[C@H](CCC(=O)O)NC(=O)[C@H](Cc1ccc(OP(=O)(O)O)cc1)NC(=O)COc1cccc([C@@H](CCc2ccc(OC)c(OC)c2)OC(=O)[C@@H]2CCCCN2C(=O)C(=O)C(C)(C)CC)c1)C(=O)O [SLFpYEEI]	–	reduced binding
